Patent US11116212B2, “Carbonyl containing compounds for controlling and repelling Cimicidae populations” (SemiosBio Technologies Inc., priority 2011, dated 2021)
Like-named read-outs stand apart in the source and are kept apart here. Marks after values point to notes of the source that are not given here.

What was measured:
Type in all cases: in vivo
[1] = tested on: bed bugs, Cimex lectularius; test: Bed bug repellency bioassay, box arena (formulations of compound 35)
Experimental: (§1) Per individual bioassay, 10 adult or late instar nymph bed bugs, Cimex lectularius, of mixed sex. Bed bugs sourced from wild, field populations and tested within 2 weeks of capture. Subjects were tested one time, only.
(iii) Box arenas consisted of covered plastic “Rubbermaid” box where the cover was modified to fit a mesh screen to allow movement of air between the test arena interior and outside. Test substrates were placed at opposite ends of the box arena. Dimensions of the box were 304.8 mm long by 200 mm wide by 80 mm in depth.
(§2) Immediately after the substrates were infused with test compounds and control solvents, test subjects were introduced to the centre of the selected observation arena. […] Only subjects that were in close contact with the treatment or control substrates were recorded. Subjects elsewhere in the arena were not included in repellency calculations. Percentage repellency was calculated based on a modification of Abbott's formula to account for negative repellency (attraction). Specifically: IF(C>=T,(C−T)/C*100,(T−C)/T*−100)
(§3) where C is number of test subjects in contact with control substrate and T is number of test subjects in contact with treatment substrate.
Compound 35 was formulated as a spray formulation in which the compound was dissolved in isopropyl alcohol (IPA) at concentrations of 1%, 2.5% and 5%.
In addition, compound 35 was tested on plastic slow-release beads. The beads were cured with either: 1) 20% (w/w) neat compound 35, or 2) 20% (w/w) of a 1:1 mixture of compound 35 and wintergreen oil (methyl salicylate).
The formulations were tested as described in Example 1 using the box configuration.

[2] = tested on: bed bugs, Cimex lectularius; test: Bed bug repellency bioassay, glass tube olfactometer arena; conditions: for pest or weed control at 25 % strength / pest or weed control at 5 % strength / pest or weed control at 1 %: Cimex lectularius; for pest or weed control at 25 % strength: beads, 20 uL; for pest or weed control at 5 % strength: 50 uL
Experimental: as §1
(ii) Olfactometer consisting of a glass tube. Tube ends were plugged to prevent egress of test subjects. Test substrates were placed at opposite ends of the tube. Tube Olfactometer includes a port in the centre for introduction of test subjects. Dimensions of the tube were 15.2 mm in diameter by 304.8 mm long.
Compounds were either purchased from commercial sources or synthesized using conventional synthetic organic chemistry techniques (see, for example, Examples 5 to 7). Some compounds (014, 058 and 080) were tested in duplicate (one version from commercial sources and one synthesized) and the best performance is reported in the Tables below. Of the tested compounds reported in the Tables below, the following compounds were synthesized: 006, 010, 017, 018, 040, 041 to 043, 045, 046, 048, 049, 058, 067 to 075, 079, 080 to 082, 089 and 090.
Test compounds consisted of a control and treatment. The treatment consisted of a test compound mixed as a percentage w/w in a suitable solvent. The test compound solvent itself was used as a control. Solvents used were hexane, hexane:methanol, or dichloromethane:methanol.
(i) Gauze cut to a standard size and folded upon itself to provide harbourage for test subjects.
(iii) Absorbent polymer “aroma” beads that were given sufficient time to fully absorb test compounds and control solvents.
In the case of gauze and filter paper substrates, control solvents and test mixtures of known concentrations and volumes were dispensed directly onto substrates using a pipette. For polymer beads, beads were mixed w/w with solvent or test compound in a small glass jar. The jars were occasionally agitated to facilitate soaking of the beads.
as §2, §3
All average repellency results reported in the table are based on 3 replicates for each reported trial, with each trial involving at least 3 observation periods. The observation periods were short-term (30 min), medium-term (1-2 hours), and long-term (24-48 hours). The “overall average” reported in the table represents the average for 3 replicates for 3 observation periods. […]
To determine whether compounds could be combined in the repellent compositions, compounds 14 and 35 were each tested at a concentration of 5% (w/w), and as a combination comprising each compound at a concentration of 2.5% (w/w). The formulations were tested as described in Example 1 using the olfactometer configuration.

[3] = tested on: bed bugs, Cimex lectularius; test: Bed bug repellency bioassay, Petri dish arena; conditions: filter paper, 100 uL, 1% v/v in hexane, average of 3 replicates x 3 observation periods
Text: (i) Petri Dish arenas consisted of a standard plastic, covered Petri Dish where test substrates were placed at opposite sides of the dish. Dimensions of the dish were 101.6 mm in diameter by 25.4 mm in depth.
(ii) Filter paper of standard size and folded as per (i).
In the case of gauze and filter paper substrates, control solvents and test mixtures of known concentrations and volumes were dispensed directly onto substrates using a pipette. […]
Immediately after the substrates were infused with test compounds and control solvents, test subjects were introduced to the centre of the selected observation arena. […] Only subjects that were in close contact with the treatment or control substrates were recorded. […] Percentage repellency was calculated based on a modification of Abbott's formula to account for negative repellency (attraction). […]

[4] = 25% w/w in hexane, average of 3 replicates x 3 observation periods, read-out: % Repellency (% R), Overall Average
[5] = gauze, 5% w/v in hexane, average of 3 replicates x 3 observation periods, read-out: % Repellency (% R), Overall Average
[6] = gauze, 10 uL, 1% v/v in hexane, average of 3 replicates x 3 observation periods, read-out: % Repellency (% R), Overall Average

CCC(=O)OCc1ccco1 [Compound 035, Furfuryl propionate]
% R (Overall Average) ([1]; IPA spray, 1% (w/w) compound 35 in isopropyl alcohol): 92%
% R (Overall Average) ([1]; IPA spray, 2.5% (w/w) compound 35 in isopropyl alcohol): 94%
% R (Overall Average) ([1]; IPA spray, 5% (w/w) compound 35 in isopropyl alcohol): 100%
repellency of formulations (in words) ([1]; both formulation formats (IPA spray, plastic beads), all concentrations tested): excellent repellency
% R (Overall Average) ([1]; plastic slow-release beads cured with 20% (w/w) neat compound 35): 100%
% R (Overall Average) ([1]; plastic slow-release beads, 10% compound 35 + 10% wintergreen oil (methyl salicylate)): 100%
pest or weed control at 25 % strength [2, 4]: > 80%
% R (Overall Average) ([2]; Example 2, single compound at 5% (w/w)): 95%

CCOC(=O)CCC(=O)O [Compound 055, Mono-ethyl succinate]
% Repellency (% R), Overall Average [3]: 73%

CCCCCCCCCCC(C)=O [Compound 061, 2-dodecanone]
pest or weed control at 5 % strength [2, 5]: > 80%

CCC(=O)CC [Compound 062, 3-pentanone]
pest or weed control at 5 % strength [2, 5]: 10%
pest or weed control at 5 % strength ([2]; gauze, 5% w/v in hexane, best single observation (one repetition, one time), read-out: % Repellency, At least One Time >50%): 89%
pest or weed control at 5 % strength ([2]; observation period T1, gauze, 5% w/v in hexane, read-out: % Repellency T1 (average of 3 repetitions)): -11%
pest or weed control at 5 % strength ([2]; observation period T2, gauze, 5% w/v in hexane, read-out: % Repellency T2 (average of 3 repetitions)): -3%
pest or weed control at 5 % strength ([2]; observation period T3, gauze, 5% w/v in hexane, read-out: % Repellency T3 (average of 3 repetitions)): 43%

CCC(=O)/C=C/C(=O)CC [Compound 067, (E)-oct-4-ene-3,6-dione]
pest or weed control at 5 % strength ([2]; gauze, 5% w/v in hexane:methanol (1:1), average of 3 replicates x 3 observation periods, read-out: % Repellency (% R), Overall Average): > 80%

CCOC(=O)/C=C/C(=O)CC [Compound 068, (E)-ethyl 4-oxohex-2-enoate]
pest or weed control at 1 % [2, 6]: 43%
pest or weed control at 1 % ([2]; observation period T1, gauze, 10 uL, 1% v/v in hexane, read-out: % Repellency T1 (average of 3 repetitions)): 30%
pest or weed control at 1 % ([2]; observation period T2, gauze, 10 uL, 1% v/v in hexane, read-out: % Repellency T2 (average of 3 repetitions)): 32%
pest or weed control at 1 % ([2]; observation period T3, gauze, 10 uL, 1% v/v in hexane, read-out: % Repellency T3 (average of 3 repetitions)): 65%
% Repellency, At least One Average >50% ([2]; gauze, 10 uL, 1% v/v in hexane, best average over 3 replicates for a single time period): 65%

CC(O)c1ccco1 (centres unmarked) [Compound 069, 1-(furan-2-yl)ethanol]
pest or weed control at 25 % strength [2, 4]: > 80%

CCC(=O)/C=C/C(=O)O [Compound 070, (E)-4-oxohex-2-enoic acid]
pest or weed control at 1 % ([2]; gauze, 10 uL, 1% v/v in hexane:methanol (1:1), average of 3 replicates x 3 observation periods, read-out: % Repellency (% R), Overall Average): 74%

CC(C)C(O)c1ccco1 (centres unmarked) [Compound 071, 1-(furan-2-yl)-2-methylpropan-1-ol]
pest or weed control at 1 % [2, 6]: 57%

CCC(C)C(O)c1ccco1 (centres unmarked) [Compound 072]
pest or weed control at 5 % strength [2, 5]: 79%

CCCCC(O)c1ccco1 (centres unmarked) [Compound 073, 1-(furan-2-yl) pentan-1-ol]
pest or weed control at 5 % strength [2, 5]: > 80%

CCC(=O)/C=C(\C)C(C)=O [Compound 074, (E)-3-methylhept-3-ene-2,5-dione]
pest or weed control at 25 % strength ([2]; 25% w/w in dichloromethane:methanol (1:1), average of 3 replicates x 3 observation periods, read-out: % Repellency (% R), Overall Average): > 80%

CCC(O)c1ccco1 (centres unmarked) [Compound 075, 1-(furan-2-yl) propan-1-ol]
pest or weed control at 1 % [2, 6]: 79%

CCOC(=O)CCC(C)=O [Compound 076, ethyl levulinate]
pest or weed control at 5 % strength [2, 5]: 69%

C=CC(O)c1ccco1 (centres unmarked) [Compound 078, 2-Furanmethanol, a-ethenyl-]
pest or weed control at 25 % strength [2, 4]: > 80%

CCOC(C#CC(=O)CC)OCC [Compound 079, 6,6-diethoxyhex-4-yn-3-one]
pest or weed control at 5 % strength [2, 5]: > 80%

CC(=O)c1ccco1 [Compound 080, 2-Furyl methyl ketone]
pest or weed control at 5 % strength [2, 5]: > 80%

CC(C)C(=O)c1ccco1 [Compound 082, 1-(2-furyl)-2-methyl-propan-1-one]
pest or weed control at 25 % strength [2, 4]: > 80%

CC(=O)OCc1ccco1 [Compound 084, Furfuryl acetate]
pest or weed control at 25 % strength [2, 4]: 61%

CCOC(=O)c1ccco1 [Compound 085, Ethyl 2-furoate]
pest or weed control at 25 % strength [2, 4]: 73%

CCCC(=O)c1ccco1 [Compound 086, 2-butyrylfuran]
pest or weed control at 25 % strength ([2]; 25% w/w in hexane:methanol (1:1), average of 3 replicates x 3 observation periods, read-out: % Repellency (% R), Overall Average): > 80%

CCC(C)C(=O)c1ccco1 (centres unmarked) [Compound 089, 1-furan-2-yl-2-methylbutan-1-one]
pest or weed control at 5 % strength [2, 5]: > 80%

CCCCC(=O)c1ccco1 [Compound 090, 1-Pentanone, 1-(2-furanyl)-]
pest or weed control at 5 % strength [2, 5]: > 80%
